For one test, the target named is LPS. The note with it: read-out: Kd for LPS (reported affinity); cited from earlier work.
In a further test the test system is LPS (serotype O55;B5). The test is described as follows: LPS binding, tandem weak anion exchange / reverse phase columns with varied wash volumes. The note with it: for wash volumes of column 1 needed to reduce peak by 50%: 1 CV=1.66 ml, 50 mM Tris pH 6.7; for retention on weak anion exchange column 1: with/without preincubation with LPS. An excerpt:
We used a tandem column method employing POROS™ columns on a BioCAD™ 20 Workstation. Column 1 was a weak anion exchange column (PI/M; 4.6×100 mm) while column 2 was a reverse phase column (R2/H; 4.6×100 mm). […] LPS, however, would be expected to interact with this column due to the presence of two charged phosphate groups at the lipid A region of the molecule. […] Material retained on column 1 was eluted directly onto column 2 where it was captured. Elution of column 2 allowed the resolution of peaks arising from column 1.
Screening the library for binding to LPS was performed as follows. The cationic fraction of the XXXFL library was incubated (30 min/RT) with 1-3 mg/ml of LPS (serotype O55;B5; Sigma Chemical Co., St. Louis, Mo.) in 50 mM Tris, pH 6.7. At this time the incubation mixture was injected and run over column 1 on the BioCAD™ Workstation (equilibrated in the same buffer). The column was run at 4 ml/min. After washing with the appropriate number of column volumes of equilibration buffer (1 CV=1.66 ml), the column was purged and eluted (using 8 mM HCl, 1M NaCl) directly onto column 2 by switching the latter column in line with column 1 during the elution process. Material captured on column 2 was eluted using a gradient from 12 mM HCl in water to 80% ACN, 6 mM HCl. Peaks were collected, further purified by rerunning on a vydac C-18 column (4.6×250 mm), and analyzed by Mass Spectrometry (on a Voyager™ MALDI-TOF instrument; PerSeptive Biosystems, Framingham, Mass.) and peptide sequencing (Hewlett Packard). Peptides identified were synthesized and binding of these molecules to the Lipid A region of the LPS was confirmed by measuring the ability of PmxB or Pentamidine to compete with the peptide for this site.
The number of wash volumes required to reduce the peak for these agents correlated with the reported affinities of these agents for LPS; PmxB (Kd […]) was reduced 50% after 42 CVs washing of column 1 while pentamidine (Kd 100 nM) required a higher number of washes for a similar reduction (46 CVs). Using this methodology we could rapidly examine which peaks from the library were capable of binding to LPS with the highest affinity since, upon exposure to higher numbers of wash volumes only the peptides with higher affinity for the target were retained. […] Three such peaks from the XXXFL library and 3 peaks from the CXXXC library were further purified and characterized by MS and peptide sequencing. […] The other peptides will be synthesized and studied in a similar manner although another approach being considered is that a sublibrary of the format ZZZFL (where Z represents either R or K) be screened to identify the member with the highest affinity. Candidates purified from the cyclic library are still awaiting sequencing.

The next test has as its system mouse IgG (Fc fragment). In words: Solution phase peptide screening (SEC - reversed phase) of protein A and G digests. Format: binding. The note with it: native and denatured recombinant protein A and G digests. On the procedure:
5 mg each of either mouse IgG (whole) or the Fc fragment was incubated with 20 mg of natural library and protein A and G digests, respectively. The mixture was dissolved in 1 ml of a mixture of 25 mM sodium phosphate buffer and 0.15 M NaCl (pH 7) overnight at 4° C. After incubation, several chromatographic runs through the Superdex SEC and RP columns were conducted with 200 of the protein and peptide mixture injected through the Superdex column during each run. The flow rate for the Superdex column was 0.75 m/min with the 25 mM sodium phosphate buffer and 0.15 M NaCl (pH 7) mixture. The early eluting protein peak was collected directly onto the RP column. The remaining portion of the peak was washed off the SEC. The mouse IgG (whole) or Fc fragment and its associated peptides were then eluted from the RP column under the following conditions:
Fractions corresponding to bound peptide peaks were lyophilized and redissolved in 1001 of 0.1% TFA/DIW for mass spec analysis by MALDI-TOF.

Another test concerns IgG. The test is described as follows: IgG purification from human serum on POROS-immobilized peptide column. Format: binding. On the procedure:
1 g POROS™ AL (aldehyde) was suspended in 10 mM PBS (pH 7.5) containing 100 mg sodium cyanoborohydride (NaCNBH3). 5 to 20 mg of each of the peptides selected by various screening procedures was added to the resin and the mixture was shaken overnight at room temperature. 100 mg sodium borohydride (NaBH4) was then added and the mixture was shaken for another 2 hrs. The beads were then washed with PBS and packed into 4.6 mm D×100 mm L column using POROS™ Self Pack® device.
100 μl of 1:10 diluted serum was injected onto the peptide column which was equilibrated with 20 mM tris (pH 8.0) at 5 ml/min. The bound proteins were eluted with 0-1 M NaCl gradient in 15 CVs. Fractions were collected manually and concentrated by Speed Vac for subsequent analysis by SDS-polyacrylamide gel electrophoresis.
The […] (SEQ ID NO: 8) peptide with heme group was immobilized on POROS™AL® (aldehyde) via the N-terminal end. This POROS™-peptide conjugate was used to separate IgG from serum at pH 8 under a 0-1 M NaCl gradient. […] To determine the nature of interaction, the purification profile of IgG separated on the POROS™-peptide column was compared with the IgG purified on standard ion exchange columns such as POROS™-CM and POROS™ HQ. […] The effect of the varying loading densities of peptide (from 10 mg/g POROS™ to 100 mg/g POROS™) on specificity and capacity for IgG binding was also investigated. The specificity of the peptide for IgG binding was also investigated. […] At low loading density (10 mg/g POROS™) IgG bound primarily via ionic interaction requiring elution of bound IgG with salt gradient. At higher loading density ([…]) IgG bound strongly and eluted with acid buffer. The binding capacity varied from 1-2 mg/ml column volume at lower ligand density to 30 mg/ml column volume at higher ligand densities.
A simplified analog of the heme peptide ([…]) (SEQ ID NO: 9) was synthesized and immobilized on POROS™ AL via the N-terminal end. […] The bound IgG was eluted from the GAQGHTVBK (SEQ ID NO: 9)-POROS™ column with 100 mM NaCl. The IgG binding capacity was determined to be 5 mg/ml column volume. Loading densities from 20 mg/g to 40 mg peptide /g POROS™ were evaluated. At these ligand densities, the specificity of IgG binding was not affected, but the capacity was reduced.

Test [1] deals with monoclonal antibody (mouse IgG2a, clone 3E-7) raised against human β-endorphin. In words: Peptide binding to immobilized anti-β-endorphin mAb affinity column in tandem with C-18 column. How it is done: The purchased mAb (280 mg resuspended in 1 ml H2O) was passed over an XL cartridge (2.1×30 mm) consisting of protein-G coupled to POROS™ perfusion chromatographic media (PerSeptive Biosystems, Framingham, Mass.) by making […] injections on a BioCAD™ 20 Workstation (PerSeptive Biosystems, Framingham, Mass.). Protein-G binds to the Fc region of antibodies with high affinity. The mAb was subsequently cross-linked to the protein G using the standard methods and materials provided with the XL column. In brief, this consisted of passing 14 ml of cross-linking solution (100 mM triethanolamine, pH 8.5, 7.8 mg/ml dimethyl pimelimidate (DMP)) over the column at a flow rate of 0.5 ml/mm. The cross-linking reagent was quenched by subsequent injection of 2 ml of 100 mM monoethanolamine, pH 9.0. The sensor cartridge was washed with PBS, pH 7.4 at 0.5 ml/min for 2 min followed by a further injection of 2 ml of quench solution and washed as above. […] A second XL column (without antibody) was treated with cross-linking reagents and washed as for the affinity column for use as a “control column”.
The target immobilized affinity column prepared above was plumbed in tandem mode to a vydac reversed phase C-18 column on a BioCAD™ Workstation using the configuration shown in FIG. 5. This configuration allowed independent equilibration and washing of the affinity and vydac columns while allowing in line elution of material bound to the mAb-column directly onto the vydac column. The reverse phase vydac column could then be eluted independently of the affinity column.
This reversed phase column was then developed with a gradient of acetonitrile (4% ACN/12 mM HCl to 80% ACN/6 mM HCl over 18 min; flow rate 1 ml/min). Both columns were re-equilibrated in their respective starting buffers prior to the next injection.
The peptide solution (20 nmol) was injected onto the affinity column and then unbound peptide was removed by washing the column with PBS, pH, 7.4. Peptides affinity captured by the antibody was eluted from the “target column” directly onto the C-18 column for resolution.

Test [2] has as its target Monoclonal antibody (mAb), mouse IgG2a, clone 3E-7, raised against human β-endorphin (mouse). In words: increasing quantities of peptide injected on immobilized mAb column; peak height on C-18 column.
Test [3] shares this target. In words: 20 nmol peptide injected on immobilized mAb column, acid eluted onto C-18 column; peak area.
Test [4] concerns the target human IgG (whole), pure or from human serum (human). In words: peptide immobilized on POROS AL via the N-terminal end; IgG binding capacity of the column.

For `N=C(N)c1ccc(OCCCCCOc2ccc(C(=N)N)cc2)cc1` [pentamidine], the Kd – broadly, the free concentration of one partner at which half of the binding sites on the other are occupied at equilibrium, for simple one-to-one binding – on LPS is 100 nM. Also, in the test on LPS (serotype O55;B5), the “wash volumes of column 1 needed to reduce peak by 50%” value was 46 CVs and the “retention on weak anion exchange column 1” value is reported as “retained on column 1 under the conditions used only after preincubation in the presence of LPS”.

Turning to “EKEPEVID (OTHER INFORMATION: Description of Artificial Sequence: Protein fragment derived from the tryptic digest of protein A and G) [peptide from recombinant Protein G digest]”, the “selected as binder in solution phase screening” value (from here on “selected as binder”) with mouse IgG (Fc fragment) was “identified”.

For “GDAPTPEKEPEASI (OTHER INFORMATION: Description of Artificial Sequence: Protein fragment derived from the tryptic digest of protein A and G) [peptide from recombinant Protein G digest]”, the “selected as binder” value in the test on mouse IgG (Fc fragment) is “identified”.

On to “KKRFL (OTHER INFORMATION: Description of Artificial Sequence: synthetic peptide)”, for which the “affinity for LPS relative to Pentamidine” value in the test on LPS (serotype O55;B5) is given as “much lower than the latter molecule”. Moreover, the “competition for LPS binding” value in the test with LPS (serotype O55;B5) (competition experiment with Pentamidine) was “displaced by Pentamidine”. The “binding to LPS” value in the test with LPS (serotype O55;B5) (synthesized peptide, same paradigm) is listed as “demonstrated to bind to LPS”.

Regarding “TVTEK (OTHER INFORMATION: Description of Artificial Sequence: Protein fragment derived from the tryptic digest of protein A and G)”, the “IgG binding affinity relative to proteins A & G” value with IgG (salt gradient suffices for elution) is given as “bind IgG, but with less affinity”.

“TVTEKPE (OTHER INFORMATION: Description of Artificial Sequence:Protein fragment derived from the tryptic digest of protein A and G) [peptide from recombinant Protein G digest]”: the “selected as binder” value with mouse IgG (Fc fragment) is “identified”.

Consider “TVTEKPEV (immobilized on POROS; OTHER INFORMATION: Description of Artificial Sequence: Synthetic peptide corresponding to a part of the Fc binding domain of recombinant protein G)”, for which the “specificity of IgG binding from human serum” value in the test with IgG (pH 8, immobilized on POROS via N-terminal end) was “comparable specificity as the POROS™-Protein A conjugate”.

For the molecule “YEYFL (OTHER INFORMATION: Description of Artificial Sequence: synthetic peptide)”, in test [1] (parallel experiment), the “retention by the mAb affinity column” value is recorded as “not retained”.

For YGGFL, in test [1] (20 nmol injected, PBS pH 7.4 wash, eluted onto C-18), the “amount of the peptide recovered from affinity column, calculated from peak area” value was “approximately 1.2 nmoles”. For the same molecule, the “effect of injection flow rate on amount of peptide bound/recovered” value in test [1] (flow rate 0.2 ml/min to 5 ml/min) was “did not affect the recovery”. For the same molecule, the “amount of bound peptide at saturation, calculated from peak height” value in test [1] (increasing quantities injected) is on record as “about 1.2 nmoles”.

Regarding polymyxin B, in the test on LPS (serotype O55;B5), the “wash volumes of column 1 needed to reduce peak by 50%” value was 42 CVs and the “retention on weak anion exchange column 1” value is on record as “retained on column 1 under the conditions used only after preincubation in the presence of LPS”.

Molecule synthetic peptide YGGFL (SEQ ID NO: 1) had an amount of the bound peptide at saturation in test [2] of 1.2 nmol. The molecule also yielded an amount of the peptide recovered in test [3] of 1.2 nmol.

GAQGHTVEK [… (SEQ ID NO: 9), simplified analog of the heme peptide]: the IgG binding capacity (mg/ml column volume) in test [4] stood at 5.

Values taken from patent publication US6794148B2, “High speed, automated, continuous flow, multi-dimensional molecular selection and analysis” (PerSeptive Biosystems, Inc., priority 1995, dated 2004).
